Earlier results, collected in patent US20210275546A1, “HIGH DRUG LOAD SOLID ORAL DOSAGE FORMS OF DEXAMETHASONE” (Jubilant Pharma Holdings Inc., priority 2020, published 2021).
Entries after “also recorded” stand apart in the source; their conditions may differ.

## C[C@@H]1C[C@H]2[C@@H]3CCC4=CC(=O)C=C[C@]4(C)[C@@]3(F)[C@@H](O)C[C@]2(C)[C@@]1(O)C(=O)CO [Dexamethasone, 9-fluoro-11β,17,21trihydroxy-16α-methylpregna-1,4-diene-3,20-dione]
acetone
  solubility in acetone: sparingly soluble
dichloromethane
  solubility in dichloromethane: slightly soluble
ethanol
  solubility in ethanol: sparingly soluble
methanol
  solubility in methanol: sparingly soluble
water
  solubility in water: practically insoluble; also recorded: poorly water-soluble
